{"source": "patent US20230116972A1", "about": "“CD38 MODULATORS AND METHODS OF USE THEREOF” (Cytokinetics, Inc., priority 2021, published 2023)", "key": {"[1]": {"target": "T1, human CD38 (Homo sapiens, UniProt P28907)", "T1 sequence (P28907 1-300)": "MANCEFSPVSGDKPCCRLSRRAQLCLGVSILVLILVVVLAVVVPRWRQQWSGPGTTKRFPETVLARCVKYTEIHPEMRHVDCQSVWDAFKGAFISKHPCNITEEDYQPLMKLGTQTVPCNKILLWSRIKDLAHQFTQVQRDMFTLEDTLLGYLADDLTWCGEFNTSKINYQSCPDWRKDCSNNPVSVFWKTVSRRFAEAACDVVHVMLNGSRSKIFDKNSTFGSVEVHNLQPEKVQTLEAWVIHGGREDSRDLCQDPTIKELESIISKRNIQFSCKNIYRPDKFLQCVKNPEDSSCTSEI", "assay": "human recombinant CD38 enzyme assay (hydrolysis of NAD+)", "type": "biochemical", "conditions": "human recombinant CD38, 0.4 nM enzyme, 62.5 μM NAD+; read-out: hCD38 BioChem IC50", "how_it_was_run": "(§1)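 Steps: compound and recombinant enzyme are mixed, NAD+ is added, and the reaction runs 60 min at room temperature. An ADH/ethanol mix containing a CD38 inhibitor halts hydrolysis and forms NADH. After NaOH quench, resazurin plus diaphorase produce fluorescent resorufin, read at 540/590 nm.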"}, "[2]": {"target": "T2, mouse CD38 (Mus musculus, UniProt P56528)", "T2 sequence (P56528 1-304)": "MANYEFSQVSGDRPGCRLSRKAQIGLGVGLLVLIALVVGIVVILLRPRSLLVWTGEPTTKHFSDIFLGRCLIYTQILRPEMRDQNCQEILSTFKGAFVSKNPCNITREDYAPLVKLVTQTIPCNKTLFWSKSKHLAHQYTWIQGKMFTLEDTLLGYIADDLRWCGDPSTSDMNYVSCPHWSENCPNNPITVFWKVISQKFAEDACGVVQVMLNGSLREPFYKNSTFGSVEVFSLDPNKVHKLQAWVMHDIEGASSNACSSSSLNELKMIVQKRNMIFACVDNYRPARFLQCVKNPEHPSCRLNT", "assay": "mouse recombinant CD38 enzyme assay (hydrolysis of NAD+)", "type": "biochemical", "conditions": "read-out: mCD38 BioChem IC50", "how_it_was_run": "as §1"}, "[3]": {"target": "T3, endogenous CD38 in HL60 cells (Homo sapiens, UniProt P28907)", "T3 construct": "endogenous in cells; host or cells: HL60 (leukemic cells, treated with all-trans retinoic acid)", "T3 sequence (P28907 1-300)": "T1 sequence (P28907 1-300)", "assay": "cellular CD38 assay in HL60 cells (cellular NAD levels)", "type": "cell-based", "conditions": "all-trans retinoic acid, 24 hours, read-out: hCD38 HL60 ATRA NAD Cell Diaphorase IC50", "how_it_was_run": "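Endogenous CD38 inhibition is inferred from NAD levels in HL60 cells after 24 h compound exposure at 20000 cells per well. A lytic cycling readout (0.2 U/mL diaphorase, 0.8 U/mL alcohol dehydrogenase, resazurin, FMN, ethanol, 0.2% Triton X-100, Tris/EDTA pH 8.4) ran 60 min at ambient temperature. Resorufin fluorescence was read at 540/590 nm.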"}}, "data": [{"smiles": "COCCOc1cc(-c2cncn2C)nc(C(=O)Nc2ccc(C(F)F)nc2)n1", "note": "[Compound 224, N-(6-(difluoromethyl)pyridin-3-yl)-4-(2-methoxyethoxy)-6-(1-methyl-1H-imidazol-5-yl)pyrimidine-2-carboxamide]", "values": [{"measurement": "IC50", "setting": "[1]", "result": 0.0056, "unit": "µM"}, {"measurement": "IC50", "setting": "[2]", "result": 0.0011, "unit": "µM"}, {"measurement": "IC50", "setting": "[3]", "result": 0.707, "unit": "µM"}]}, {"smiles": "COc1cc(C(=O)Nc2ccc(C(F)F)nc2)nc(-c2cncn2C)c1", "note": "[Compound 225, N-(6-(difluoromethyl)pyridin-3-yl)-4-methoxy-6-(1-methyl-1H-imidazol-5-yl)picolinamide]", "values": [{"measurement": "IC50", "setting": "[1]", "result": 0.007, "unit": "µM"}, {"measurement": "IC50", "setting": "[2]", "result": 0.0038, "unit": "µM"}, {"measurement": "IC50", "setting": "[3]", "result": 1.08, "unit": "µM"}]}, {"smiles": "COc1cc(C(=O)Nc2ccc(C(F)(F)F)nc2)nc(-c2cncn2C)c1", "note": "[Compound 226, 4-methoxy-6-(1-methyl-1H-imidazol-5-yl)-N-(6-(trifluoromethyl)pyridin-3-yl)picolinamide]", "values": [{"measurement": "IC50", "setting": "[1]", "result": 0.0204, "unit": "µM"}, {"measurement": "IC50", "setting": "[2]", "result": 0.0127, "unit": "µM"}, {"measurement": "IC50", "setting": "[3]", "result": 5.21, "unit": "µM"}]}, {"smiles": "Cn1cncc1-c1nc(C(=O)N[C@H]2CC[C@H](C(F)F)CC2)cc(C2CCOCC2)n1", "note": "[Compound 227, N-((1r,4r)-4-(difluoromethyl)cyclohexyl)-2-(1-methyl-1H-imidazol-5-yl)-6-(tetrahydro-2H-pyran-4-yl)pyrimidine-4-carboxamide]", "values": [{"measurement": "IC50", "setting": "[1]", "result": 0.0093, "unit": "µM"}, {"measurement": "IC50", "setting": "[2]", "result": 0.0024, "unit": "µM"}, {"measurement": "IC50", "setting": "[3]", "result": 2.07, "unit": "µM"}]}, {"smiles": "Cn1cncc1-c1nc(C(=O)N[C@H]2CCc3c(F)cccc32)cc(C2CCOCC2)n1", "note": "[Compound 228, (S)-N-(4-fluoro-2,3-dihydro-1H-inden-1-yl)-2-(1-methyl-1H-imidazol-5-yl)-6-(tetrahydro-2H-pyran-4-yl)pyrimidine-4-carboxamide]", "values": [{"measurement": "IC50", "setting": "[1]", "result": 0.0162, "unit": "µM"}, {"measurement": "IC50", "setting": "[2]", "result": 0.0047, "unit": "µM"}, {"measurement": "IC50", "setting": "[3]", "result": 3.88, "unit": "µM"}]}, {"smiles": "Cn1cncc1-c1nc(C(=O)N[C@H]2CCc3cc(F)ccc32)cc(C2CCOCC2)n1", "note": "[Compound 229, (S)-N-(5-fluoro-2,3-dihydro-1H-inden-1-yl)-2-(1-methyl-1H-imidazol-5-yl)-6-(tetrahydro-2H-pyran-4-yl)pyrimidine-4-carboxamide]", "values": [{"measurement": "IC50", "setting": "[1]", "result": 0.0112, "unit": "µM"}, {"measurement": "IC50", "setting": "[2]", "result": 0.0025, "unit": "µM"}, {"measurement": "IC50", "setting": "[3]", "result": 4, "unit": "µM"}]}, {"smiles": "Cn1cncc1-c1nc(C(=O)N[C@H]2C[C@H](c3ccccc3)C2)cc(C2CCOCC2)n1", "note": "[Compound 230, 2-(1-methyl-1H-imidazol-5-yl)-N-((1r,3r)-3-phenylcyclobutyl)-6-(tetrahydro-2H-pyran-4-yl)pyrimidine-4-carboxamide]", "values": [{"measurement": "IC50", "setting": "[1]", "result": 0.0043, "unit": "µM"}, {"measurement": "IC50", "setting": "[2]", "result": 0.0017, "unit": "µM"}, {"measurement": "IC50", "setting": "[3]", "result": 1.46, "unit": "µM"}]}, {"smiles": "COCCO[C@H]1CC[C@H](NC(=O)c2nc(OC)cc(-c3cncn3C)n2)CC1", "note": "[Compound 231, 4-methoxy-N-((1r,4r)-4-(2-methoxyethoxy)cyclohexyl)-6-(1-methyl-1H-imidazol-5-yl)pyrimidine-2-carboxamide]", "values": [{"measurement": "IC50", "setting": "[1]", "result": 0.0722, "unit": "µM"}, {"measurement": "IC50", "setting": "[2]", "result": 0.009, "unit": "µM"}, {"measurement": "IC50", "setting": "[3]", "result": 10.2, "unit": "µM"}]}, {"smiles": "COCCO[C@H]1CC[C@H](NC(=O)c2nc(C)cc(-c3cncn3C)n2)CC1", "note": "[Compound 232, N-((1r,4r)-4-(2-methoxyethoxy)cyclohexyl)-4-methyl-6-(1-methyl-1H-imidazol-5-yl)pyrimidine-2-carboxamide]", "values": [{"measurement": "IC50", "setting": "[1]", "result": 0.0537, "unit": "µM"}, {"measurement": "IC50", "setting": "[2]", "result": 0.0081, "unit": "µM"}, {"measurement": "IC50", "setting": "[3]", "result": 7.29, "unit": "µM"}]}, {"smiles": "COCCOc1cc(-c2cncn2C)nc(C(=O)Nc2ccc(C(F)(F)F)nc2)n1", "note": "[Compound 233, 4-(2-methoxyethoxy)-6-(1-methyl-1H-imidazol-5-yl)-N-(6-(trifluoromethyl)pyridin-3-yl)pyrimidine-2-carboxamide]", "values": [{"measurement": "IC50", "setting": "[1]", "result": 0.006, "unit": "µM"}, {"measurement": "IC50", "setting": "[2]", "result": 0.0011, "unit": "µM"}, {"measurement": "IC50", "setting": "[3]", "result": 1.04, "unit": "µM"}]}, {"smiles": "COc1cc(-c2cncn2C)nc(C(=O)Nc2ccc(C(F)(F)F)nc2)n1", "note": "[Compound 234, 4-methoxy-6-(1-methyl-1H-imidazol-5-yl)-N-(6-(trifluoromethyl)pyridin-3-yl)pyrimidine-2-carboxamide]", "values": [{"measurement": "IC50", "setting": "[1]", "result": 0.0024, "unit": "µM"}, {"measurement": "IC50", "setting": "[2]", "result": 0.0014, "unit": "µM"}, {"measurement": "IC50", "setting": "[3]", "result": 0.557, "unit": "µM"}]}, {"smiles": "Cc1cc(-c2cncn2C)nc(C(=O)Nc2ccc(C(F)(F)F)nc2)n1", "note": "[Compound 235, 4-methyl-6-(1-methyl-1H-imidazol-5-yl)-N-(6-(trifluoromethyl)pyridin-3-yl)pyrimidine-2-carboxamide]", "values": [{"measurement": "IC50", "setting": "[1]", "result": 0.0038, "unit": "µM"}, {"measurement": "IC50", "setting": "[2]", "result": 0.0016, "unit": "µM"}, {"measurement": "IC50", "setting": "[3]", "result": 0.376, "unit": "µM"}]}]}
